Values belong to the molecule of their own block, whether it stands above or below them. Residues, ends and D or L forms follow the SMILES beside them. No end group written: not given here.
Tests used:
NP-1/Fc = test: Inhibition of 125I-VEGF165 binding to NP-1/Fc
Experimental: The ability of various compositions comprising TKPPR monomers or multimers to inhibit ^125I-VEGF binding to NP-1 was evaluated using NP-1/Fc. Competitive binding assays with microtiter plates coated with NP-1/Fc (R&D sytems) were performed using ^125I-VEGF165 as radioligand (Amersham Pharmacia Biotech Cat. No. IM274, Specific Activity: 1000-2500 Ci/mmol). […] Plates (Nunc MaxiSorp white opaque Microtiter plate [C-bottom, 437796]) were coated by incubating the wells with 75 µl of a solution containing 3 μlg/mL NP-1/Fc in D-PBS/0.1% NaAzide overnight at 4° C. after covering with sealing tape (Dynex, VWR Cat. No. 62402-931). […] All points were derived from triplicate wells, and for each set of replicates in NP-1/Fc-coated wells, a companion set in the absence of the receptor was included. For competitive binding, a series of unlabelled competitor concentrations were prepared in a 250 pM solution of ^1251-VEGF165 in assay buffer Solutions were added to 1.2 ml polypropylene tubes conforming to the microtiter format (Costar Cat. No. 29442-602), and transferred from these tubes to microtiter wells, without further dilution, using a multichannel pipettor. After addition of the appropriate solutions, microtiter plates were incubated at 4° C. for 2 hours. […] The plates were blotted dry and 25 μl deionized water and 100 μl scintillation fluid (Optiphase SuperMix, Wallac) were added to each well. Plates were agitated using a Plate Shaker (Hyperion, Cat. No. 4030-100F) for 3-5 minutes and were then counted using a Microplate Scintillation Counter (Wallac Microbeta Trilux) A set of serially diluted 125I-VEGF165 standard wells ranging from 200 to 0.04 pM were included with each experiment to aid in quantification of the amount of radiolabel bound.

HAEC [1] = test: Inhibition of TKPPR-bubble binding to HAEC in static culture by competing agents; assay type: cell-based, human
Experimental: Vials of the compositions of example 5 and of example 6 may be reconstituted with 5 mL of sterile saline, injected using a 20-guage 1.5 inch needle. Bubbles may be then formed within the vials by shaking by hand vigorously for 30 seconds. 1 to 5 mL of the bubble formulation may be removed from each vial and diluted with 3 volumes of D-PBS (without calcium or magnesium) within 1 hour of use.
Chamber slides containing confluent HAEC may be drained of culture medium, which was immediately replaced with one of the final bubble solutions prepared above. The wells may be slightly overfilled such that the liquid meniscus protrudes slightly above the plastic well-forming scaffold of the slide. Bubble solutions may be only added to alternate wells to minimize liquid cross-talk. The wells may be sealed with a piece of Parafilm and the slide incubated 20 minutes, inverted (according to Klibanov A. L., Advanced drug Delivery Reviews, 37, 1999, 139-157) to allow the bubbles to rise and make contact with the cells, after which the solutions may be poured off. Weakly associated bubbles may be removed by washing each well twice with 0.5 mL of D-PBS, swirling gently each time before pouring off. Additional D-PBS (0.5 mL) may be added to wells after the washes to keep the cells submerged until microscopic evaluation.
Composition I of Example 5 was repeated exactly as described except that 0.5 mg DPPE-GTKPPR was added (instead of 2.5 mg) yielding compositions with 1% DPPE-GTKPPR. Vials of this composition as well as that of composition I ofExample 5 (5% DPPE-GTKPPR) were reconstituted with 5 mL of sterile saline, injected using a 20-guage 1.5 inch needle. Bubbles were then formed within the vials by shaking by hand vigorously for 30 seconds. 1 to 5 mL of the bubble formulation was removed from each vial and diluted with 3 volumes of D-PBS (without calcium or magnesium) within 1 hour of use.
Chamber slides containing confluent HAEC were drained of culture medium, which was immediately replaced with one of the final bubble solutions prepared above. The wells were slightly overfilled such that the liquid meniscus protruded slightly above the plastic well-forming scaffold of the slide. Bubble solutions were only added to alternate wells to minimize liquid cross-talk. The wells were sealed with a piece of Parafilm and the slide was incubated 20 minutes, inverted to allow the bubbles to rise and make contact with the cells, after which the solutions were poured off. Weakly associated bubbles were removed by washing each well twice with 0.5 mL of D-PBS, swirling gently each time pouring off. Additional D-PBS (0.5 mL) was added to wells after the washes to keep the cells submerged until microscopic evaluation.
Assays were performed as described for Example 7 using microbubble compositions containing 2% BRU-114 (Composition I of Example 5) as a % of total phospholipid in the composition.
Compositions were reconstituted and assays were performed as described in Example 7 using microbubble compositions containing 1% BRU-114 (Composition I of Example 5) as a % of total phospholipid in the composition.
Assays were performed as described for Example 7 using microbubble compositions containing 2% BRU-114 (as a % of total phospholipid in the composition).

Neuropilin-1/Fc = test: Fluorescence polarization binding to NP-1/Fc; conditions: Oregon Green-labeled ligand
Experimental: The ability of various compositions comprising TKPPR monomers or multimers to bind to NP-1/Fc and KDR-Fc was evaluated using FP. The binding studies of various Oregon Green (OG)-labeled compounds comprising TKPPR monomers or multimers and related compounds with Neuropilin-1/Fc, and KDR-Fc (both from R&D Systems), were carried out at 37° C. in D-PBS buffer (pH 7.4). FP values (mP) for each substrate was measured by titrating the ligand (5-20 nM) with receptor protein using a Jolley Research and Consulting FPM-1 fluorescence Polarization analyzer. In each of these experiments the observed polarization values were plotted against receptor concentration. The mP values for 100% binding of tracer labeled ligand to receptor protein was calculated using the software provided by the vendor.

[2] = test system: Human aortic endothelial cells (HAEC); test: TKPPR-conjugated fluorescent bead binding to HAEC, static; assay type: cell-based
Experimental: Human aortic endothelial cells (HAEC) from Biowhittaker were grown as monolayers in EGM-MV medium from Biowhittaker according to the supplier's instructions.
Briefly, a frozen cryovial of cells (500,000 cells in about 1 mL) was thawed for 2-3 minutes in a 37° C. water bath and cells were seeded into a T-75 flask coated with collagen I (commercially available) containing 15 mL EGM-MV of medium pre-equilibrated with 5% CO2 atmosphere. Cells were incubated in a standard tissue culture incubator at 37° C. HAEC were subcultured for up to 3 additional passages, using the following protocol:
For binding studies and characterization, pelleted cells were diluted to a concentration of 16,560 cells per mL, and 0.5 mL was seeded into each well of an 8-well chamber slide (Collagen I-coated, Becton Dickinson) to generate a seeding density of 12,000 cells/cm^2. Cells seeded into chamber slides were used for assays after 7 to 10 days, and were not further propagated.
TKPPR (see preparation described in the Example 1) was attached to red fluorescent carboxylate-modified FluoSpheres™ (Molecular Probes), which are 2.0 μm microspheres provided at 3.9×10^9 particles/mL of distilled water. 1.0 mg TKPPR was combined with 0.5 mLof 50 mM MES buffer (2-[N-Morpholino]ethanesulfonic acid, (commercially available), pH 6.0 and 0.2 mL FluoSpheres (7.8×10^8 spheres) in a 1.5 mL Eppendorf snap top, polypropylene centrifuge tube and rotated for 30 min at room temperature (RT). Then 2.8 mg EDAC (1-ethyl-3-(3-dimethylaminopropyl)carbodiimide hydrochloride, (commercially available) in 0.025 mL MES was added and the tube was rotated for 2 h at RT. Following the addition of 0.005 mL 1 N NaOH and 5.7 mg glycine in 0.025 mL MES, the tube was rotated for 30 min more at RT. The beads were then washed by employing three cycles of centrifugation at 14,000 rpm (20,800× g) in an Eppendorf 5417R centrifuge for 15 min, discarding the resulting supernatant, and resuspending in D-PBS. Storage was at 4° C. in 0.4 mL DPBS containing 0.05% NaN3 (final bead concentration was about 1.95×10^9/mL).
Final bead concentration was 1.95×10^7/mL. […]
Bead binding and localization was assessed at 200× magnification using the same microscopy equipment as described above. […] Finally, the processed images were inverted into black on a white background using Scion Image software (version beta 3b) and the integrated density was measured with the whole field selected.
The incubation time was decreased to 15 min on an orbital shaker, and the washes (3) were carried out using D-PBS containing 0.1% Tween 20 (Sigma). […] TKPPR-bead binding was quantitated in three fields, the other bead types were quantitated in one field only. Bound beads were quantitated by manual counting.

HAEC [3] = test: TKPPR-bead binding to endothelial cells under flow; assay type: cell-based, human; conditions: flow 1.91 mL/min, 37° C.
Experimental: Circular 40 mm diameter glass coverslips (Bioptechs, Cat No. 40-1313-0319) were first derivative by dipping in 3-aminopropyltriethoxysilane (Pierce, Cat No. 80370ZZ), 20% in acetone (HPLC grade, Sigma Aldrich Cat No. 27,072-5), rinsed in acetone, and air-dried. After autoclaving, the derivatized coverslips were placed into 60 mm round, sterile culture dishes, one coverslip per dish. Five mL of a Collagen I solution (Becton Dickinson, Cat No. 40236), 41.6 μg/mL in 20 mM acetic acid (adjusted to pH 6.7 with NaOH), was added to each coverslip-containing dish. After 15 min, 0.25 mL of 11.5 mg/mL bis(sulfosuccinimidyl) suberate (Pierce, Cat No. 21580ZZ) was added to each dish and mixed in by swirling. After a 105-minute incubation, the dishes were drained and 5 mL of sterile TBS (20 mM Tris-HCl, pH 7.5, 140 mM NaCl) was added to each dish. […]
Coverslips containing confluent HAEC were mounted into a Bioptechs FCS2 parallel plate flow cell mounted on an Olympus IMT-2 inverted microscope. […] Wall shear stress T, in dynes/cm^2, was calculated using the equation (Lawrence et al., Blood 75:227-237, 1990): [formula]
Bead binding of equal numbers of red fluorescent beads conjugated with TKPPR and green fluorescent beads conjugated with glycine was monitored after increasing lengths of perfusion and variable lengths of subsequent washing with the same solution lacking microspheres.

fold less potent a binding inhibitor than TKPPR (NP-1/Fc): 5 to 6 fold
IC50 (NP-1/Fc; 250 pM 125I-VEGF165, 4° C., 2 hours): 280 µM
potency at inhibiting BRU-114 microbubble binding relative to TKPPR (BRU-95) (HAEC [1]; 1% BRU-114 bubbles): less potent than TKPPR
inhibition of TKPPR-bubble binding to HAEC (HAEC [1]; Example 7, compared with free TKPPR): less effectively than free TKPPR
Bubbles Bound (average of duplicate) (HAEC [1]; competitor 5 microM, 1% BRU-114 bubbles): 1152
Bubbles Bound (average of duplicate) (HAEC [1]; competitor 10 microM, 1% BRU-114 bubbles): 976
Bubbles Bound (average of duplicate) (HAEC [1]; competitor 25 microM, 1% BRU-114 bubbles): 1171
Bubbles Bound (average of duplicate) (HAEC [1]; competitor 50 microM, 1% BRU-114 bubbles): 904
Bubbles Bound (average of duplicate) (HAEC [1]; competitor 100 microM, 1% BRU-114 bubbles): 556
Molecule: C[C@@H](O)[C@H](N)C(=O)N[C@@H](CCCCN)C(=O)N1CCC[C@H]1C(=O)N[C@@H](CCCNC(=N)N)C(=O)O [TKPR, L-threonyl-L-lysyl-L-prolyl-L-Arginine, reference compound] (H-TKPR-OH)

inhibition of 125I-VEGF165 binding to NP-1 Fc (NP-1/Fc; at 1 μM): no inhibition
Molecule: BRU-170: TPATSVRG (negative control) [reference compound]

binding to NP-1/Fc by FP (Neuropilin-1/Fc): barely detectable
fold more potent than the monomer (NP-1/Fc): 10 to 14 fold
Molecule: BRU-317: TKPPR dimer labeled with Oregon Green (also: dimer, labeled with Oregon Green)

Molecule: GRGDSP
Integrated density of bound beads ([2]; Experiment 1, 1.95×10^7 beads/mL, 30 min, HAEC monolayer): 28.59 arbitrary units
Number of bound beads ([2]; Experiment 2, 4.9×10^6 beads/mL, 15 min, manual counting, TKPPR average of three fields, others one field): 2

Molecule: Glycine
Beads bound at 1.53 dynes/cm^2 (HAEC [3]): 10
